Assay results published in patent publication US20110245200A1, “USE OF IDRABI[…] DECREASING THE INCIDENCE OF BLEEDINGS DURING AN ANTI[…]” (SANOFI-AVENTIS, priority 2008, published 2011).

Assays:
[1] = tested on: patients with acute symptomatic DVT; test: EQUINOX clinical trial: bleeding (safety) and efficacy over 6 months of treatment; format: in vivo, human; settings: for Kaplan-Meier cumulative incidence of first bleeding (any bleeding), comparison of the two groups: FIG. 1; for Major bleeding, number of patients [n] / Any bleeding (clinically relevant major or non-major), % of patients / Any bleeding (clinically relevant major or non-major), number of patients [n] / Major bleeding, % of patients (incidence): first study drug administration up to D182; for Any bleeding (clinically relevant major or non-major), % of patients: crude rate; for Any bleeding (clinically relevant major or non-major), number of patients [n]: once-weekly s.c., equimolar doses (idrabiotaparinux 3.0 mg, idraparinux 2.5 mg); for Major bleeding, % of patients (incidence): p=0.006 Fisher's exact test
Text: (§1) This trial was aimed at studying the bioequipotency of idrabiotaparinux and idraparinux, as assessed by anti-Xa activity at month 6, in patients with acute symptomatic DVT, as well as studying the ability to neutralize idrabiotaparinux with avidin, and also at documenting the safety and efficacy of idrabiotaparinux and idraparinux.
The study was an international, multi-center, double-blind, randomized, with two parallel groups phase III study, in patients treated for acute symptomatic DVT. In order to get 600 patients (300 patients in each treatment group) who completed the 6-month treatment with idrabiotaparinux or idraparinux, 700 patients with confirmed symptomatic DVT of the lower limbs were to be randomized to either idrabiotaparinux (n=350 patients) or idraparinux (n=350 patients). 300 completed patients per group, with a 6-month extent of exposure to the drug, were considered as an adequate sample size to assess clinical safety of idrabiotaparinux, i.e. to characterize the pattern of adverse events over time.
During the study period, patients were treated with equimolar doses of idrabiotaparinux (3.0 mg) or of idraparinux (2.5 mg). The drug was injected subcutaneously, once-weekly.
For safety, the main endpoints were clinically relevant bleeding (major or clinically relevant non-major), as classified by the Central Independent Adjudication Committee (hereafter “CIAC”), and death (cause of death validated by the CIAC).
The safety population consisted of all randomized patients who took at least one dose of study medication (all treated population). Patients were analyzed according to the treatment they actually received.
The main safety analysis period was the randomized treatment period, defined as the period from first study drug administration (taken as Day 1) up to Day 182 (hereafter “D182”).
The numbers and percentages of patients with clinically relevant bleeding within 6 months (from first study drug administration up to Day 182) were presented by treatment group. The rate of any clinically relevant bleeding was calculated by dividing the number of patients with this event by the number of treated patients (crude rate). Bleeding rate estimates and exact 95% confidence interval (hereafter “C1”) were presented by treatment group. Cumulative incidences of any clinically relevant bleeding during the on-treatment period were also described by treatment group using the Kaplan-Meier method. Time to first clinically relevant bleeding was censored at the minimum day between: Day 182; the day of last study drug administration+7 days; the day of death; and the day of last clinical event assessment giving any information on bleeding symptoms.
The numbers and percentages (crude rates) of patients with major bleedings within 6 months (from first study drug administration up to Day 182) were also presented by treatment group. The criteria used by the CIAC to classify major bleedings were summarized according to the worst severity. The order of severity was: fatal bleeding, including fatal intra-cranial hemorrhage (hereafter “ICH”), non-fatal bleeding within a critical organ, non-fatal bleeding with fall in hemoglobin or transfusion.

patients with DVT [2] = test: VAN GOGH clinical trial (DVT): bleeding incidence, idraparinux versus standard therapy; format: in vivo, human
Text: According to the results published in N. Engl.

patients with DVT [3] = settings: 6 months after start of treatment (Day 183), N. Engl. J. Med., 2007, 357, 1094-104; cited from earlier work
activated factor X = test: EQUINOX clinical trial: bioequipotency assessed by anti-Xa activity; format: in vivo, human; settings: equimolar doses
Text: as §1

patients with DVT [4] = test: Putative indirect comparison of idrabiotaparinux with standard treatment (EQUINOX OR times van Gogh DVT OR); format: in vivo, human; settings: 95% CI: 0.061-1.020; p value 0.053; calculated as 0.200 times 1.245
Protocol: For major bleedings, the putative odds ratio (OR) comparing idrabiotaparinux to the standard treatment (OR=0.249 [95% CI: 0.061-1.020]) yielded a p value of 0.053; this putative OR was calculated as OR of idrabiotaparinux versus idraparinux in EQUINOX (0.200) times OR of idraparinux versus standard treatment in van Gogh DVT (1.245).

[5] = major bleedings up to D182 by adjudication criterion, all treated population

CO[C@H]1O[C@H](COS(=O)(=O)O)[C@@H](O[C@@H]2O[C@@H](C(=O)O)[C@@H](O[C@H]3O[C@H](COS(=O)(=O)O)[C@@H](O[C@@H]4O[C@H](C(=O)O)[C@@H](O[C@H]5O[C@H](COS(=O)(=O)O)[C@@H](OC)[C@H](OC)[C@H]5OC)[C@H](OC)[C@H]4OC)[C@H](OS(=O)(=O)O)[C@H]3OS(=O)(=O)O)[C@H](OC)[C@H]2OC)[C@H](OS(=O)(=O)O)[C@H]1OS(=O)(=O)O [Idraparinux, idraparinux]
Kaplan-Meier cumulative incidence of first bleeding (any bleeding), comparison of the two groups ([1]; on-treatment period, at month 6): higher than in the idrabiotaparinux group
Major bleeding, number of patients [n] ([1]; all treated population): 14
Any bleeding (clinically relevant major or non-major), % of patients ([1]; all treated population): 7.3%
Any bleeding (clinically relevant major or non-major), number of patients [n] ([1]; all treated population): 27
Major bleeding, % of patients (incidence) ([1]; all treated population): 3.8%
Fatal bleeding: Gastrointestinal, number of patients [n] [1, 5]: 0
Fatal bleeding: Intracranial, % of patients [1, 5]: 0.8%
Fatal bleeding: Intracranial, number of patients [n] [1, 5]: 3
Fatal bleeding: Other, number of patients [n] [1, 5]: 0
Non-fatal bleeding associated with a fall in hemoglobin >=2 g/dL and/or leading to a transfusion >=2 units of blood, % of patients [1, 5]: 1.9%
Non-fatal bleeding associated with a fall in hemoglobin >=2 g/dL and/or leading to a transfusion >=2 units of blood, number of patients [n] [1, 5]: 7
Non-fatal bleeding into a critical organ: Intracranial, % of patients [1, 5]: 0.5%
Non-fatal bleeding into a critical organ: Intracranial, number of patients [n] [1, 5]: 2
Non-fatal bleeding into a critical organ: Other, number of patients [n] [1, 5]: 0
Non-fatal bleeding into a critical organ: Pericardial, number of patients [n] [1, 5]: 0
Non-fatal bleeding into a critical organ: Retroperitoneal, % of patients [1, 5]: 0.5%
Non-fatal bleeding into a critical organ: Retroperitoneal, number of patients [n] [1, 5]: 2
Fatal bleeding: Intracranial, number of patients [n] ([1]; major bleedings up to D182 by adjudication criterion, all treated population, listed as idraparinux): three
Intracranial hemorrhages observed (fatal and non-fatal), number ([1]; up to D182, all treated population): five
Odds ratio for major bleedings, idraparinux versus standard treatment (patients with DVT [2]): 1.245
Incidence of clinically relevant bleedings (any bleedings) (patients with DVT [3]): 8.3%
Rate of major bleedings (patients with DVT [3]): 1.9%

CO[C@H]1O[C@H](COS(=O)(=O)O)[C@@H](O[C@@H]2O[C@@H](C(=O)O)[C@@H](O[C@H]3O[C@H](COS(=O)(=O)O)[C@@H](O[C@@H]4O[C@H](C(=O)O)[C@@H](O[C@H]5O[C@H](COS(=O)(=O)O)[C@@H](OC)[C@H](OC)[C@H]5NC(=O)CCCCCNC(=O)CCCC[C@@H]5SC[C@@H]6NC(=O)N[C@@H]65)[C@H](OC)[C@H]4OC)[C@H](OS(=O)(=O)O)[C@H]3OS(=O)(=O)O)[C@H](OC)[C@H]2OC)[C@H](OS(=O)(=O)O)[C@H]1OS(=O)(=O)O [Idrabiotaparinux, idrabiotaparinux]
Odds ratio for major bleedings, idrabiotaparinux versus idraparinux ([1]; EQUINOX): 0.200
Kaplan-Meier cumulative incidence of first bleeding (any bleeding), comparison of the two groups ([1]; on-treatment period, at month 3): comparable
Kaplan-Meier cumulative incidence of first major bleeding, comparison of the two groups ([1]; FIG. 2, on-treatment period, after month 2): marked difference in major bleeding incidences between the two treatment groups, in favour of the idrabiotaparinux group
Major bleeding, number of patients [n] ([1]; all treated population): 3
Any bleeding (clinically relevant major or non-major), % of patients ([1]; all treated population): 5.2%
Any bleeding (clinically relevant major or non-major), number of patients [n] ([1]; all treated population): 20
Major bleeding, % of patients (incidence) ([1]; all treated population): 0.8%
Fatal bleeding: Gastrointestinal, number of patients [n] [1, 5]: 0
Fatal bleeding: Intracranial, number of patients [n] [1, 5]: 0
Fatal bleeding: Other, % of patients [1, 5]: 0.3%
Fatal bleeding: Other, number of patients [n] [1, 5]: 1
Non-fatal bleeding associated with a fall in hemoglobin >=2 g/dL and/or leading to a transfusion >=2 units of blood, % of patients [1, 5]: 0.5%
Non-fatal bleeding associated with a fall in hemoglobin >=2 g/dL and/or leading to a transfusion >=2 units of blood, number of patients [n] [1, 5]: 2
Non-fatal bleeding into a critical organ: Intracranial, number of patients [n] [1, 5]: 0
Non-fatal bleeding into a critical organ: Other, number of patients [n] [1, 5]: 0
Non-fatal bleeding into a critical organ: Pericardial, number of patients [n] [1, 5]: 0
Non-fatal bleeding into a critical organ: Retroperitoneal, number of patients [n] [1, 5]: 0
Fatal bleeding: Other, number of patients [n] ([1]; major bleedings up to D182 by adjudication criterion, all treated population, listed as idrabiotaparinux): One
Safety (observed bleedings) compared with idraparinux ([1]; patients with DVT treated for 6 months, equimolar doses): better safety with less observed bleedings
anti-activated factor X pharmacological activity (anti-Xa activity) compared with idraparinux (activated factor X): same
Putative odds ratio (OR) for major bleedings, idrabiotaparinux versus standard treatment (patients with DVT [4]): 0.249
